# Reference: patent US20240199623A1 (ILDONG PHARMACEUTICAL CO., LTD., priority 2020, published 2024)
# Molecular target: human wild type-CFTR (Homo sapiens, UniProt P13569)
# Test: Cell-based YFP assay
# Set-up: expressed in transfected cells; host or cells: CHO-K1 (Chinese hamster ovary)
# Conditions: CHO-K1 cells expressing human wild type-CFTR and YFP-H148Q/I152L; forskolin 20 μM = 100% activity; read-out: Cell-based YFP Assay (EC50) Concentration Range
# Description: Forskolin (Tocris cat. #1099), Dimethyl sulfoxide (Sigma cat. #D4540), FLUO star Omega microplate reader (BMG Labtech, Ortenberg, Germany), MARS Data Analysis Software (BMG Labtech), GraphPad Prism 5 (GraphPad Software, Inc.) Chinese hamster ovary (CHO-K1) cells expressing human wild type-CFTR and halide sensor YFP-H148Q/I152L were constructed and grown in Dulbecco's modified Eagle's medium (DMEM) supplemented with 10% FBS, 2 mM glutamine, 100 units/ml penicillin and 100 μg/ml streptomycin. Chinese hamster ovary (CHO-K1) cells expressing human wild type-CFTR and halide sensor YFP-H148Q/I152L were seeded in 96-well microplate with 2×10^4 cells/well and incubated in 37° C., 48 hours. Then, each well was washed 3 times with PBS and 100 μL PBS was added in each well. […] YFP fluorescence signal affected by I^− ion influx through CFTR channel was measured in 37° C., FLUO star Omega microplate reader according to the following steps: • i) basal 2 seconds; • ii) 140 mM I^− solution 100 μL addition to each well; • iii) YFP fluorescence signal measurement start after 6 seconds; and • iv) following 14 seconds signal detection in every 0.4 seconds periods. […] Experiments were performed in triplicates and the data was averaged. EC50 values were calculated with MARS Data Analysis Software (BMG Labtech) and GraphPad Prism 5.
# human wild type-CFTR, sequence (P13569 whole entry): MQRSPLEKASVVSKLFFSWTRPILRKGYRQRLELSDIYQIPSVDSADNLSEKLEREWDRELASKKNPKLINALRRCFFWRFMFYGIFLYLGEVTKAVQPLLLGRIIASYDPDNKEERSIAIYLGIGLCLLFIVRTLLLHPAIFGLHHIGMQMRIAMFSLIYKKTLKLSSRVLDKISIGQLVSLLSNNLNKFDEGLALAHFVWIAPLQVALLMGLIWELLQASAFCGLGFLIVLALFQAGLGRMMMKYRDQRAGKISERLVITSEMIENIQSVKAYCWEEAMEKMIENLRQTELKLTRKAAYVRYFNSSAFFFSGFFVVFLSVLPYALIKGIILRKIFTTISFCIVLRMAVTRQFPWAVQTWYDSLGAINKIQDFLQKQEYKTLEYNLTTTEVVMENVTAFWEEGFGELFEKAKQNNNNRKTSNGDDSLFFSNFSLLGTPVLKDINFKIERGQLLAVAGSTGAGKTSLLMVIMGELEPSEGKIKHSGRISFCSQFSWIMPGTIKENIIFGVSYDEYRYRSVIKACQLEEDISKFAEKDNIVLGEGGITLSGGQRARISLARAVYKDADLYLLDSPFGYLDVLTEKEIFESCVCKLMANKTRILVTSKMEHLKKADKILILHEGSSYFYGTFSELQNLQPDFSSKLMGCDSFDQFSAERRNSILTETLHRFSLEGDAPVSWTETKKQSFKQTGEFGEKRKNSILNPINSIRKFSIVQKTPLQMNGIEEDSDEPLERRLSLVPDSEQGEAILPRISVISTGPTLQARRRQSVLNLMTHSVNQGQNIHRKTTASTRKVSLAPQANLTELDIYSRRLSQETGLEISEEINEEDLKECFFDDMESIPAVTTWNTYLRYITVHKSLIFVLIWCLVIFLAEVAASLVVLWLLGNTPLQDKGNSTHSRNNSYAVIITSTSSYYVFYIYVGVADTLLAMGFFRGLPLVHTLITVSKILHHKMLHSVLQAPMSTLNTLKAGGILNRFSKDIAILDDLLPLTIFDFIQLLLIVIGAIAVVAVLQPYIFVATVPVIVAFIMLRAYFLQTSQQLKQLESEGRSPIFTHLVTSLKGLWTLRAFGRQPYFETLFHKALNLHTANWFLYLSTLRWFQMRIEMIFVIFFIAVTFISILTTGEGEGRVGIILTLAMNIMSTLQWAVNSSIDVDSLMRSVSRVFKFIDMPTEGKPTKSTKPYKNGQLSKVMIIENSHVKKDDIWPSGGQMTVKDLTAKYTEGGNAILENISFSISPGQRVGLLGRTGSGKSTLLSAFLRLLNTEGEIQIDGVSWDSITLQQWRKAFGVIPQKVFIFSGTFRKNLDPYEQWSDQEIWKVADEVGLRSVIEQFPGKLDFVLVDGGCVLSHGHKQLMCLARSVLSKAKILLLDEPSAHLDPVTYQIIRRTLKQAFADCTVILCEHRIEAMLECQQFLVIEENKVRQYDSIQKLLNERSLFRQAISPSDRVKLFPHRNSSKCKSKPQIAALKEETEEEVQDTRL
row,Structure (SMILES),EC50 [nM]
1,"COc1ccc(-c2ccnc3cc(C(=O)N4CCc5cc(C(=O)O)ccc54)nn23)cc1OC [Compound 231, 1-(7-(3,4-dimethoxyphenyl)pyrazolo[1,5-a]pyrimidine-2-carbonyl) indoline-5-carboxylic acid]",≥ 2000
2,"CCOc1ccc(NC(=O)c2cc3nccc(-c4cc(OC)c(OC)cc4C)n3n2)cc1 [Compound 339, 7-(4,5-dimethoxy-2-methylphenyl)-N-(4-ethoxyphenyl)pyrazolo [1,5-a]pyrimidine-2-carboxamide]",≥ 2000
3,"O=C(Nc1ccc(N2CCOCC2)cn1)c1cc2nccc(-c3ccc(OC(F)(F)F)c(Cl)c3)n2n1 [Compound 299, 7-(3-chloro-4-(trifluoromethoxy)phenyl)-N-(5-morpholinopyridin-2-yl) pyrazolo[1,5-a]pyrimidine-2-carboxamide]",≥ 2000
4,"COC(=O)c1ccc(NC(=O)c2cc3nccc(-c4ccc(Cl)c(Cl)c4)n3n2)cc1 [Compound 40, methyl 4-(7-(3,4-dichlorophenyl)pyrazolo [1,5-a]pyrimidine-2-carboxamido) benzoate]",≥ 2000
5,"COc1ccc(-c2ccnc3cc(C(=O)Nc4ccc(C(=O)O)c(OC)c4)nn23)cc1OC [Compound 216, 4-(7-(3,4-dimethoxyphenyl)pyrazolo[1,5-a]pyrimidine-2-carboxamido)-2-methoxybenzoic acid]",≥ 2000
6,"COc1ccc(-c2ccnc3cc(C(=O)N4CCN(C(=O)c5cccc(Cl)c5)[C@@H](C)C4)nn23)cc1OC [Compound 261, (S)-(4-(3-chlorobenzoyl)-3-methylpiperazin-1-yl) (7-(3,4-dimethoxyphenyl)pyrazolo[1,5-a]pyrimidin-2-yl)methanone]",200 to 2000
7,"COc1ccc(-c2ccnc3cc(C(=O)Nc4ccc(C(=O)NCCN5CCCC5)cc4)nn23)cc1OC [Compound 223, 7-(3,4-dimethoxyphenyl)-N-(4-((2-(pyrrolidin-1-yl)ethyl)carbamoyl)phenyl)pyrazolo[1,5-a]pyrimidine-2-carboxamide]",≥ 2000
8,"COc1ccc(-c2ccnc3cc(C(=O)Nc4ccc(C(=O)N[C@@H](CC(=O)O)C(=O)O)cc4)nn23)cc1OC [Compound 88, (4-(7-(3,4-dimethoxyphenyl)pyrazolo[1,5-a]pyrimidine-2-carboxamido)benzoyl)-L-aspartic acid]",≥ 2000
9,"COc1ccc(-c2ccnc3cc(C(=O)Nc4ccc(OC(=O)[C@@H](NC(=O)OCc5ccccc5)C(C)C)cc4)nn23)cc1OC [Compound 171, 4-(7-(3,4-dimethoxyphenyl)pyrazolo[1,5-a]pyrimidine-2-carboxamido)phenyl ((benzyloxy)carbonyl)-L-valinate]",< 200
10,"COc1ccc(-c2ccnc3cc(C(=O)Nc4ccc(C(=O)NCCCN5CCCC5)cc4)nn23)cc1OC [Compound 224, 7-(3,4-dimethoxyphenyl)-N-(4-((3-(pyrrolidin-1-yl)propyl)carbamoyl)phenyl)pyrazolo[1,5-a]pyrimidine-2-carboxamide]",≥ 2000
11,"COc1ccc(-c2ccnc3cc(C(=O)N4CCCc5cc(C(=O)N6CCOCC6)ccc54)nn23)cc1OC [Compound 236, (7-(3,4-dimethoxyphenyl)pyrazolo[1,5-a]pyrimidin-2-yl)(6-(morpholine-4-carbonyl)-3,4-dihydroquinolin-1(2H)-yl)methanone]",≥ 2000
12,"COc1ccc(-c2ccnc3cc(C(=O)N4CCc5ccc(C(=O)O)cc54)nn23)cc1OC [Compound 232, 1-(7-(3,4-dimethoxyphenyl)pyrazolo[1,5-a]pyrimidine-2-carbonyl) indoline-6-carboxylic acid]",≥ 2000
13,"COc1ccc(-c2ccnc3cc(C(=O)Nc4ccc(CN5CCOCC5)cc4)nn23)cc1OC [Compound 244, 7-(3,4-dimethoxyphenyl)-N-(4-(morpholinomethyl)phenyl) pyrazolo[1,5-a]pyrimidine-2-carboxamide]",< 200
14,"COc1ccc(-c2ccnc3cc(C(=O)Nc4ccc(C(=O)N5CCOCC5)c(OC)c4)nn23)cc1OC [Compound 217, 7-(3,4-dimethoxyphenyl)-N-(3-methoxy-4-(morpholine-4-carbonyl)phenyl)pyrazolo [1,5-a] pyrimidine-2-carboxamide]",≥ 2000
15,"CCOc1ccc(NC(=O)c2cc3ncc(-c4ccc(OC)c(OC)c4)cn3n2)cc1 [Compound 254, 6-(3,4-dimethoxyphenyl)-N-(4-ethoxyphenyl)pyrazolo[1,5-a]pyrimidine-2-carboxamide]",≥ 2000
16,"COc1ccc(-c2ccnc3cc(C(=O)N4CCN(C(=O)c5ccc(F)cc5)[C@@H](C)C4)nn23)cc1OC [Compound 350, (S)-(7-(3,4-dimethoxyphenyl)pyrazolo[1,5-a]pyrimidin-2-yl)(4-(4-fluorobenzoyl)-3-methylpiperazin-1-yl) methanone]",< 200

row,Structure (SMILES),EC50 [nM]
1,COC(=O)c1cc2nccc(-c3ccc(OC)c(OC)c3)n2n1 [Compound 4],200 to 2000
2,"CCCOc1ccc(NC(=O)c2cc3nccc(-c4ccc(OC)c(OC)c4)n3n2)cc1 [Compound 230, 7-(3,4-dimethoxyphenyl)-N-(4-propoxyphenyl)pyrazolo [1,5-a]pyrimidine-2-carboxamide]",< 200
3,"COC(=O)[C@H](CCSC)NC(=O)c1ccc(NC(=O)c2cc3nccc(-c4ccc(OC)c(OC)c4)n3n2)cc1 [Compound 59, methyl (4-(7-(3,4-dimethoxyphenyl)pyrazolo [1,5-a]pyrimidine-2-carboxamido)benzoyl)-L-methioninate]",< 200
4,"COc1ccc(-c2ccnc3cc(C(=O)N4CCNC5(CC5)C4)nn23)cc1OC [Compound 361, (7-(3,4-dimethoxyphenyl)pyrazolo[1,5-a]pyrimidin-2-yl)(4,7-diazaspiro[2.5]octan-7-yl)methanone]",200 to 2000
5,"COc1ccc(-c2ccnc3cc(C(=O)N[C@H]4CC[C@@H](O)CC4)nn23)cc1OC [Compound 102, 7-(3,4-dimethoxyphenyl)-N-((1S,4S)-4-hydroxycyclohexyl) pyrazolo[1,5-a]pyrimidine-2-carboxamide]",≥ 2000
6,"COc1ccc(-c2ccnc3cc(C(=O)Nc4ccc(C(=O)N5CCOCC5)c(F)c4)nn23)cc1OC [Compound 174, 7-(3,4-dimethoxyphenyl)-N-(3-fluoro-4-(morpholine-4-carbonyl)phenyl)pyrazolo[1,5-a]pyrimidine-2-carboxamide]",< 200
7,"CCOc1ccc(NC(=O)c2cc3nccc(-c4cc(OC)cc(OC)c4)n3n2)cc1 [Compound 315, 7-(3,5-dimethoxyphenyl)-N-(4-ethoxyphenyl)pyrazolo [1,5-a]pyrimidine-2-carboxamide]",≥ 2000
8,"CCOc1ccc(NC(=O)c2cc3nccc(-c4ccc(N(C)C)cc4)n3n2)cc1 [Compound 324, 7-(4-(dimethylamino)phenyl)-N-(4-ethoxyphenyl)pyrazolo [1,5-a]pyrimidine-2-carboxamide]",≥ 2000
9,"COc1ccc(-c2ccnc3cc(C(=O)N4CCN(C)[C@@H](C)C4)nn23)cc1OC [Compound 208, (S)-(7-(3,4-dimethoxyphenyl)pyrazolo [1,5-a]pyrimidin-2-yl)(3,4-dimethylpiperazin-1-yl)methanone]",≥ 2000
10,"COc1ccc(-c2ccnc3cc(C(=O)N4CCN[C@H](C)C4)nn23)cc1OC [Compound 322, (R)-(7-(3,4-dimethoxyphenyl)pyrazolo[1,5-a]pyrimidin-2-yl)(3-methylpiperazin-1-yl)methanone]",≥ 2000
11,"COc1ccc(-c2ccnc3cc(C(=O)N4C[C@H](C)N(C(=O)c5ccccc5)C[C@H]4C)nn23)cc1OC [Compound 365, ((2R,5S)-4-benzoyl-2,5-dimethylpiperazin-1-yl)(7-(3,4-dimethoxyphenyl)pyrazolo[1,5-a]pyrimidin-2-yl)methanone]",< 200
12,"COc1ccc(-c2ccnc3cc(C(=O)Nc4ccc(C(=O)N5CCOCC5)c(C)c4)nn23)cc1OC [Compound 214, 7-(3,4-dimethoxyphenyl)-N-(3-methyl-4-(morpholine-4-carbonyl)phenyl)pyrazolo[1,5-a]pyrimidine-2-carboxamide]",≥ 2000
13,"COc1ccc(-c2ccnc3cc(C(=O)N4CCC(=O)C4)nn23)cc1OC [Compound 117, 1-(7-(3,4-dimethoxyphenyl)pyrazolo[1,5-a]pyrimidine-2-carbonyl) pyrrolidin-3-one]",≥ 2000
14,"COc1ccc(-c2ccnc3cc(C(=O)Nc4ccc(C(=O)OCCN5CCN(C(=O)OC(C)(C)C)CC5)cc4)nn23)cc1OC [Compound 275, tert-butyl 4-(2-((4-(7-(3,4-dimethoxyphenyl)pyrazolo [1,5-a]pyrimidine-2-carboxamido)benzoyl)oxy)ethyl)piperazine-1-carboxylate]",< 200
15,"COc1ccc(-c2ccnc3cc(C(=O)N4CCN(C)CC4)nn23)cc1OC [Compound 101, (7-(3,4-dimethoxyphenyl)pyrazolo[1,5-a]pyrimidin-2-yl)(4-methylpiperazin-1-yl)methanone]",≥ 2000
16,"COc1ccc(-c2ccnc3cc(C(=O)Nc4ccc(C(=O)N5CCN(C)CC5)c(C)c4)nn23)cc1OC [Compound 215, 7-(3,4-dimethoxyphenyl)-N-(3-methyl-4-(4-methylpiperazine-1-carbonyl)phenyl)pyrazolo [1,5-a]pyrimidine-2-carboxamide]",≥ 2000
